Measurements reported in ChEMBL document CHEMBL1201862, “PubChem BioAssay data set” (2004).
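96-well plates; 48 h exposure; 5 concentrations. Endpoints by linear interpolation between flanking doses. Not reached: highest tested concentration assigned. GI50 is the concentration that inhibits growth by half.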 The source made the active and inactive calls. No stated cut-off is given here; in the data, active = GI50 up to about 1.1 µM and inactive = higher. Starred links: 1 amine or outer side, 2 acyl side, 3 side chain; linkers in the order of their positions; H or OH if unused. Positions of bridges follow the written chain, without caps; N, C: chain ends. Non-standard residues stand in square brackets, D forms with d. Residues, ends and D or L forms follow the SMILES beside them. Chains are numbered I, II in the order given. Actinocin(1to9) = Cc1c2oc3c(C)ccc(C(=O)[*:2])c3nc-2c(C(=O)[*:1])c(N)c1=O; NMeV = CN[CH](C(=O)O)C(C)C; Sar = CNCC(=O)O

How the values were obtained:
Test in all cases: inhibition of tumour cell growth, NCI panel, 48 h
[1] = tested on: BT-549
[2] = tested on: HOP-18
[3] = tested on: SNB-78
[4] = tested on: M19-MEL
[5] = tested on: XF498
[6] = tested on: LXFL 529
[7] = tested on: KM-20L2
[8] = tested on: DLD-1
[9] = tested on: RXF 631

SMILES | GI50 [1] | GI50 [3] | GI50 [4] | GI50 [6] | GI50 [7] | GI50 [8] | further results
C=C(CCOC)CCC1CCCCC(=C)C1=O (stereo unspecified) | > 100 µM (inactive) | – | – | – | – | – | –
CC(CN(C)C)C(C#N)(c1ccccc1)c1ccccc1 (stereo unspecified) | > 100 µM (inactive) | – | – | – | – | – | –
CN(C)c1ccc(/C=N\N2C(=O)c3ccccc3C2=O)cc1 | – | > 100 µM (inactive) | > 100 µM (inactive) | > 100 µM (inactive) | > 100 µM (inactive) | > 100 µM (inactive) | GI50 [2]: > 100 µM (inactive); GI50 [5]: > 100 µM (inactive)
N#C/C(=C/c1ccsc1)C(=O)c1ccccc1 | – | > 100 µM (inactive) | > 100 µM (inactive) | > 100 µM (inactive) | > 100 µM (inactive) | > 100 µM (inactive) | GI50 [2]: > 100 µM (inactive); GI50 [5]: > 100 µM (inactive)
CCOC(=O)/C=C(/C=C\COC1CCCCO1)c1ccccc1 (stereo unspecified) | 41.1 µM (inactive) | – | – | – | – | – | –
CNC(=O)N(CCC#N)CCCN(C(=O)NC)c1ccccc1 | > 100 µM (inactive) | – | – | – | – | – | –
COC(=O)CCC(=O)CC(=O)C(=O)Nc1ccc(F)cc1 | – | > 100 µM (inactive) | > 100 µM (inactive) | > 100 µM (inactive) | > 100 µM (inactive) | > 100 µM (inactive) | GI50 [2]: > 100 µM (inactive)
COc1ccc2c(CCNC(=O)/C=C/c3ccccc3)c(C(C)=O)[nH]c2c1[N+](=O)[O-] | – | 40.2 µM (inactive) | – | 10 µM (inactive) | 19.1 µM (inactive) | – | GI50 [9]: 13.2 µM (inactive)
CC1=C(Cl)C[C@@H](/C(C)=C\Cl)O[C@@]1(O)C(Br)Br | 28.4 µM (inactive) | – | – | – | – | – | –
CN1CSC(=S)N(c2c3ccccc3nc3ccc(Br)cc23)C1 | 15.4 µM (inactive) | – | – | – | – | – | –
O=C(NC(=S)Nc1ccc2c(c1)Sc1ccccc1O2)c1ccccc1 | 29.6 µM (inactive) | – | – | – | – | – | –
CCOC(=O)C1=C(C)N(c2ccc(Cl)cc2)C2(O)C=CC(O)=C3C(=O)c4ccccc4C(=O)C312 (stereo unspecified) | 10.6 µM (inactive) | – | – | – | – | – | –
O1C2C1C1OC1C1OC1C1OC21 (stereo unspecified) | > 100 µM (inactive) | – | – | – | – | – | –
Fc1ccc(F)c(/C=N/C23CC4CC(CC(C4)C2)C3)c1 | > 10 µM (inactive) | – | – | – | – | – | –
Nc1cccc(CCN2CCN(CCCc3ccccc3)CC2)c1 | 52.5 µM (inactive) | – | – | – | – | – | –
O=C1CC(n2cccc2)c2c(Br)sc(Br)c21 (stereo unspecified) | 18.6 µM (inactive) | – | – | – | – | – | –
CCOP(=O)(C[S+](C)[O-])O[C@@H]1C[C@H](C)CC[C@H]1C(C)C (stereo partly specified) | 5.25 µM (inactive) | – | – | – | – | – | –
COC(=O)C1=C(C(=O)OC)C2(C(=O)OC)OC1(OC)C(C1(C(=O)OC)C(C(=O)OC)=C1C(=O)OC)=C2C(=O)OC (stereo unspecified) | – | > 100 µM (inactive) | > 100 µM (inactive) | > 100 µM (inactive) | > 100 µM (inactive) | > 100 µM (inactive) | GI50 [2]: > 100 µM (inactive); GI50 [5]: > 100 µM (inactive)
COC(=O)C1=Cc2cn(S(=O)(=O)c3ccc(C)cc3)c3cccc(c23)C(C=C(C)C)N1C(C)=O (stereo unspecified) | – | 24.5 µM (inactive) | 21.4 µM (inactive) | 32 µM (inactive) | 69.3 µM (inactive) | 14.7 µM (inactive) | GI50 [2]: 38.5 µM (inactive); GI50 [5]: 9.55 µM (inactive)
NC1c2c(Cl)sc(Cl)c2C(=O)C1O (stereo unspecified) | 15.6 µM (inactive) | – | – | – | – | – | –
Nc1ccn(CCCC(c2ccccc2)P(=O)(O)O)c(=O)n1 (stereo unspecified) | – | > 100 µM (inactive) | > 100 µM (inactive) | > 100 µM (inactive) | > 100 µM (inactive) | > 100 µM (inactive) | GI50 [2]: > 100 µM (inactive)
CC(C)(C)OC(=O)NCCc1cccc2c1oc1c(CCC(=O)O)cccc12 | – | > 100 µM (inactive) | > 100 µM (inactive) | > 100 µM (inactive) | > 100 µM (inactive) | > 100 µM (inactive) | GI50 [2]: > 100 µM (inactive); GI50 [5]: > 100 µM (inactive)
O=C(NCCCCNCCCNC(=O)OCc1ccccc1)OCc1ccccc1 | 55 µM (inactive) | – | – | – | – | – | –
Cc1[nH]c(O)nc1C(=O)c1ccc(-n2ccnc2)cc1 | – | – | > 100 µM (inactive) | > 100 µM (inactive) | > 100 µM (inactive) | > 100 µM (inactive) | –
CC1OC(=O)C(C(C)C)NC(=O)C(C(C)C)OC(=O)C(C(C)C)NC(=O)C(C)OC(=O)C(C(C)C)NC(=O)C(C(C)C)OC(=O)C(C(C)C)NC(=O)C(C)OC(=O)C(C(C)C)NC(=O)C(C(C)C)OC(=O)C(C(C)C)NC1=O (stereo unspecified) | < 0.0001 µM (active) | 0.00391 µM (active) | 0.00367 µM (active) | – | 0.0034 µM (active) | 0.00326 µM (active) | GI50 [2]: 0.0337 µM (active)
CCC(C)C1NC(=O)C(NC(=O)c2c3nc4c(C(=O)NC5C(=O)NC(C(C)CC)C(=O)N6CCCC6C(=O)N(C)CC(=O)N(C)C(C(C)C)C(=O)OC5C)ccc(C)c4oc-3c(C)c(=O)c2N)C(C)OC(=O)C(C(C)C)N(C)C(=O)CN(C)C(=O)C2CCCN2C1=O (stereo unspecified) (I: TIP[Sar][NMeV] / II: TIP[Sar][NMeV]; ester I:1-I:C, II:1-II:C; linker I:N-II:N via Actinocin(1to9); configuration not given here) | 0.0105 µM (active) | – | – | – | – | – | –
O=C1c2ccccc2C(=O)c2c(O)ccc(O)c21 [QUINIZARIN] | – | > 100 µM (inactive) | 21.8 µM (inactive) | > 100 µM (inactive) | – | 61.9 µM (inactive) | –
